Test results reported in PubChem BioAssay (NCI).
Converted amounts (≈) assume the structure as drawn.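 Results reflect a 48-hour exposure of cells in 96-well plates to compound at five concentrations. At the GI50, growth is halved. TGI: concentration producing complete growth inhibition.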

Key:
Assay in all cases: NCI tumour cell line growth inhibition, 48 h
NCI-H23 lung = test system: NCI-H23 lung
OVCAR-4 ovarian = test system: OVCAR-4 ovarian
COLO 205 colon = test system: COLO 205 colon
HCT-116 colon = test system: HCT-116 colon
HS 578T breast = test system: HS 578T breast
MCF7 breast = test system: MCF7 breast
HCT-15 colon = test system: HCT-15 colon
MDA-MB-435 = test system: MDA-MB-435
SW-620 colon = test system: SW-620 colon
SF-268 CNS = test system: SF-268 CNS

O=C1NN(C2=NNC3(C(=O)N2)c2ccccc2-c2ccccc23)C(c2ccccc2)=N/C1=C/c1ccc(O)cc1
GI50 (NCI-H23 lung): 61.5 µg/mL
TGI (NCI-H23 lung): > 150 µg/mL
GI50 (OVCAR-4 ovarian): 57.5 µg/mL
TGI (OVCAR-4 ovarian): > 150 µg/mL
GI50 (COLO 205 colon): > 150 µg/mL
TGI (COLO 205 colon): > 150 µg/mL
GI50 (HCT-116 colon): 103 µg/mL (≈ 196 µM)
TGI (HCT-116 colon): > 150 µg/mL
GI50 (HS 578T breast): 50.4 µg/mL
TGI (HS 578T breast): > 150 µg/mL
GI50 (MCF7 breast): 39.4 µg/mL
TGI (MCF7 breast): > 150 µg/mL
GI50 (HCT-15 colon): 49.6 µg/mL
TGI (HCT-15 colon): > 150 µg/mL
GI50 (MDA-MB-435): 69.9 µg/mL
TGI (MDA-MB-435): > 150 µg/mL
GI50 (SW-620 colon): 82.5 µg/mL
TGI (SW-620 colon): > 150 µg/mL
GI50 (SF-268 CNS): 49.9 µg/mL
TGI (SF-268 CNS): > 150 µg/mL

O=C(N/N=C\c1cccc(O)c1)c1ccncc1
TGI (NCI-H23 lung): > 100 µM
TGI (OVCAR-4 ovarian): > 100 µM
TGI (HCT-116 colon): > 100 µM
TGI (HS 578T breast): > 100 µM
TGI (HCT-15 colon): > 100 µM
TGI (MDA-MB-435): > 100 µM
TGI (SW-620 colon): > 100 µM
TGI (SF-268 CNS): > 100 µM

Cc1nc2ccccc2n1C(=O)c1c(F)c(F)c(F)c(F)c1F
TGI (NCI-H23 lung): 56.2 µM
TGI (OVCAR-4 ovarian): 29 µM
TGI (COLO 205 colon): 77.9 µM
TGI (HCT-116 colon): 21.8 µM
TGI (HS 578T breast): > 100 µM
TGI (MCF7 breast): > 100 µM
TGI (HCT-15 colon): 33.9 µM
TGI (MDA-MB-435): 20 µM
TGI (SW-620 colon): 49.8 µM
TGI (SF-268 CNS): > 100 µM

C=CC1(C)CCC2=C(CCC3C(C)(C(=O)OC)CCCC23C)C1=O (centres undefined)
TGI (NCI-H23 lung): 54.5 µM
TGI (OVCAR-4 ovarian): 28.2 µM
TGI (COLO 205 colon): 34.6 µM
TGI (HCT-116 colon): 31.1 µM
TGI (HCT-15 colon): 42.7 µM
TGI (SW-620 colon): 33.5 µM
TGI (SF-268 CNS): 34.9 µM

Cn1c(=O)c2[nH]c(CCCCC(=O)O)nc2n(C)c1=O
TGI (NCI-H23 lung): > 100 µM
TGI (OVCAR-4 ovarian): > 100 µM
TGI (HCT-116 colon): > 100 µM
TGI (HS 578T breast): > 100 µM
TGI (HCT-15 colon): > 100 µM
TGI (MDA-MB-435): > 100 µM
TGI (SW-620 colon): > 100 µM
TGI (SF-268 CNS): > 100 µM

Clc1ccccc1/C=C/c1cscn1
TGI (NCI-H23 lung): > 100 µM
TGI (OVCAR-4 ovarian): > 100 µM
TGI (HCT-116 colon): > 100 µM
TGI (HCT-15 colon): > 100 µM
TGI (SF-268 CNS): > 100 µM

CCOC(=O)CN=C1NNS(=O)(=O)c2ccccc21
TGI (NCI-H23 lung): > 100 µM
TGI (OVCAR-4 ovarian): > 100 µM
TGI (COLO 205 colon): > 100 µM
TGI (HCT-116 colon): > 100 µM
TGI (HS 578T breast): > 100 µM
TGI (MCF7 breast): > 100 µM
TGI (HCT-15 colon): > 100 µM
TGI (MDA-MB-435): > 100 µM
TGI (SW-620 colon): > 100 µM
TGI (SF-268 CNS): > 100 µM

C=C(C)C(=O)OC1CCC2(C)C(CCC3C2CCC2(C)C(c4ccc(=O)oc4)CC4OC432)C1 (centres undefined)
TGI (NCI-H23 lung): 19.3 µM
TGI (OVCAR-4 ovarian): 34 µM
TGI (COLO 205 colon): 22.8 µM
TGI (HCT-116 colon): 19 µM
TGI (MCF7 breast): 13.2 µM
TGI (HCT-15 colon): 32 µM
TGI (SW-620 colon): 25.1 µM
TGI (SF-268 CNS): 31.9 µM

CCOC(=O)C(O)(NC(=O)c1ccc(F)cc1)C(F)(F)F (centres undefined)
TGI (NCI-H23 lung): > 100 µM
TGI (OVCAR-4 ovarian): > 100 µM
TGI (COLO 205 colon): > 100 µM
TGI (HCT-116 colon): > 100 µM
TGI (HS 578T breast): > 100 µM
TGI (MCF7 breast): > 100 µM
TGI (HCT-15 colon): > 100 µM
TGI (MDA-MB-435): > 100 µM
TGI (SW-620 colon): > 100 µM
TGI (SF-268 CNS): > 100 µM

Cc1cc(O)c(C(C)(C)C)cc1Sc1cc(C(C)(C)C)c(O)cc1C
GI50 (NCI-H23 lung): 3.49 µM
TGI (NCI-H23 lung): 11.8 µM
GI50 (OVCAR-4 ovarian): 3.16 µM
TGI (OVCAR-4 ovarian): 12.5 µM
GI50 (COLO 205 colon): 2.83 µM
TGI (COLO 205 colon): 7.24 µM
GI50 (HS 578T breast): 3.02 µM
TGI (HS 578T breast): 13.9 µM
GI50 (MCF7 breast): 2.61 µM
TGI (MCF7 breast): 9 µM
GI50 (HCT-15 colon): 2.96 µM
TGI (HCT-15 colon): 11.8 µM
GI50 (MDA-MB-435): 1.98 µM
TGI (MDA-MB-435): 4.14 µM
GI50 (SW-620 colon): 3.65 µM
TGI (SW-620 colon): 13.7 µM
GI50 (SF-268 CNS): 3.3 µM
TGI (SF-268 CNS): 12.9 µM
